Data published in article PMC8505397, “Development of peptides targeting receptor binding site of the envelope glycoprotein to contain the West Nile virus infection” (Scientific Reports, 2021).

Experiments:
[1] = target: T1, interaction between rDIII and proteins of hBMECs (West Nile virus, UniProt P06935); test: Blocking of interaction between rDIII and proteins of hBMECs by peptides (ELISA); type: binding, West Nile virus / human
T1 construct: rDIII – recombinant domain III; made in house; host or cells: E. coli M15
T1 sequence (P06935 584-692 limits assumed): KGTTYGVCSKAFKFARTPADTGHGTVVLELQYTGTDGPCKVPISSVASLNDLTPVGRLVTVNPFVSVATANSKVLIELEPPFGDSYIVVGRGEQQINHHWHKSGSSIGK
Experimental: First, concentration-dependent ELISA and Western blot were performed to get the minimum concentration of rDIII required to show its interaction with hBMECs proteins. Details are presented in Supplementary Method S12 and Supplementary Method S13. Subsequently, the ability of 7-mer and 12-mer peptides to block the interaction between rDIII and proteins of hBMECs was tested. A tenfold molar excess of peptides was incubated with rDIII for 1 h at room temperature. Such pre-incubated rDIII was subsequently used in the assays. Details of both methods are described in Supplementary Method S12 and Supplementary Method S13. […]
Blocking of interaction between rDIII and proteins of hBMECs by peptides (ELISA). First, different concentrations of rDIII were tested to get the minimum concentration of rDIII required to show the interaction with hBMECs proteins. Protein extract of hBMECs (4 μg/well) diluted in coating buffer (0.5 M Na2CO3, 0.5 M NaHCO3; pH 9.5) was incubated in the microtiter wells for overnight at 4°C. Unbound hBMECs proteins were washed with PBS (pH 7.3) containing 0.05% Tween 20 (0.05% PBST) and non-specific binding sites were blocked with 0.5% BSA in 0.05% PBST. rDIII at different concentrations (5 µg, 2.5 µg, 2 µg, 1 µg, 500 […]
ng, 250 ng, 125 ng, and 62.5 ng) diluted in 0.05% PBST was added into wells and incubated for 3 h at room temperature and constant shaking. Wells were washed 3 times with 0.05% PBST and incubated with HisProbe-HRP conjugate (1:5,000 dilution in 0.1% BSA in 0.05% PBST; Thermo Fisher Scientific) for 30 min at room temperature and constant shaking. […] The reaction was stopped after 25 min with 2 M H2SO4 and the absorbance was measured at 450 nm. […]
After blocking, the wells were washed 3 times with 0.05% PBST, pre-incubated rDIII was added and incubated for 3 h at room temperature with constant shaking. […] The reaction was stopped after 25 min with 2 M H2SO4 and the absorbance was measured at 450 nm. hBMECs proteins incubated with untreated rDIII were used as a positive control. […]

[2] = system: adhesion of rDIII on cultured hBMECs; test: Blocking of adhesion of rDIII on cultured hBMECs by peptides (immunocytochemistry); type: cell-based, human; details: 5 µg (0.39 nM) rDIII pre-blocked with tenfold molar excess (3.9 nM) of peptide
Experimental: Cells were cultured as described in Supplementary Method S1. First, concentration-dependent immunocytochemistry was performed to reveal the minimum concentration of rDIII required to detect its adhesion to the endothelial cells. Details are presented in Supplementary Method S14.
After that, the ability of peptides to block the adhesion of rDIII to the culture of hBMECs was judged. A tenfold molar excess of each peptide was incubated with rDIII for 1 h at room temperature. Pre-incubated rDIII was subsequently used in the assay. Details are described in the Supplementary Method S14. […]
Blocking of adhesion of rDIII on cultured hBMECs by peptides (immunocytochemistry). First, different concentrations of rDIII were tested to get the minimum concentration of rDIII required to detect the adhesion of the domain to the cultured hBMECs. In short, hBMECs were cultured on collagen type I (Sigma) coated coverslips in a 12-well culture plate in EBM-2 medium (Lonza) as was described in Supplementary Method S1 until 70% confluency. Cells were washed 2 times with PBS (pH 7.4) and fixed with acetone/ethanol (8:2 [v/v]) for 10 min at 4°C. Cells were washed 3 times with PBS (pH 7.4) and incubated with rDIII at different concentrations (20 µg, 15 µg, 10 µg, 5 µg, 2.5 µg, 2 µg, and 1 µg) diluted in 1 mL of PBS (pH 7.4) for 1 h at room temperature with gentle shaking. […]

SMILES: CC[C@H](C)[C@@H]1NC(=O)[C@@H](NC(=O)[C@H](C)N)CSSC[C@@H](C(=O)NCC(=O)NCC(=O)NCC(=O)N[C@@H](CO)C(=O)O)NC(=O)[C@H](C)NC(=O)[C@H](CCCNC(=N)N)NC(=O)[C@H]([C@@H](C)O)NC(=O)[C@H](CO)NC(=O)[C@H](CO)NC(=O)[C@H](Cc2c[nH]cn2)NC1=O [CP4, CIHSSTRAC]
- A450, rDIII binding to hBMECs proteins after pre-incubation with peptide ([1]; pre-incubated with tenfold molar excess (1.5 nM) of peptide, positive control A450 = 1.064): 0.346
- inhibition of the interaction between rDIII and hBMECs proteins ([1]; rDIII 0.15 nM pre-incubated with tenfold molar excess (1.5 nM) of peptide, ELISA): 67%
- inhibition of the adhesion of rDIII on endothelial cells (immunocytochemistry) [2]: able to inhibit the adhesion of rDIII on the endothelial cells
